Test results published in patent publication US10544113B2 (priority 2016, dated 2020).
pEC50: −log10 of the molar value. Where two headings read alike, the source gives them in different places.

Target: mu-opioid receptor (MOR) (Homo sapiens (Human), UniProt P35372)
Assay: cell-based
Conditions: combined with a MOR antagonist; for AUC: AUC of [Ca2+]i fluorescence, CHO-K1/MOR/Gα15 cells
Procedure: In an exemplary in vitro screening method for identifying antagonist-to-agonist allosteric modifiers of a MOR, cells that express a MOR are treated with a test compound and a MOR antagonist in a cellular calcium fluorescent assay and fluorescence intensity is then measured to determine whether the MOR is activated. A test compound is identified as an antagonist-to-agonist allosteric modifier of the MOR if the MOR is activated.
EC50 herein refers to the concentration of a compound that induces a response halfway between the baseline and the maximum after a specified exposure time. AUC refers to the area under the response curve, an indication of the compound's capability of activating a MOR when combined with a MOR antagonist.
Human embryonic kidney 293 (HEK-293) cells constitutively expressing MOR (HEK-MOR) and DOR (HEK-DOR) (kindly provided by Dr. Ping-Yee Law, University of Minnesota, USA) were cultured in high-glucose Dulbecco's modified Eagle's medium (DMEM, GIBCO) supplemented with 400 μg/mL G418 (Sigma), 2 mM L-glutamine and P/S/F (100 units/mL penicillin, 100 μg/mL streptomycin, 10% fetal bovine serum). Chinese hamster ovary (CHO)-K1 cells, stably expressing hMOR and Gα15 (CHO-K1/MOR/Gα15), were cultured in F12 medium (GIBCO) supplemented with 10 μg/mL Hygromycin B (Invivogen), 20 μg/mL Zeocin (Invivogen) P/S/F (100 units/mL penicillin, 100 μg/mL streptomycin, 10% fetal bovine serum). The cultures were incubated at 37° C. in a humidified 5% CO2 incubator.
One day before the assay, CORNING® black with clear flat bottom 96-well assay plates were coated with a 0.1 mg/mL Poly-L-Lysine solution. CHO-K1/MOR/Gα15 cells were suspended in the F12 medium and plated at a density of ˜8×10^4 cells/well in 200 μL medium. Cells were incubated in a humidified atmosphere of 10% CO2 at 37° C. overnight so as to reach an 80-90% confluent cell monolayer before assay. At the day of assay, 150 μL medium/well was removed from plate. To each well, 50 μL FLIPR® calcium assay reagent dissolved in 1× assay buffer (HBSS: KCl 5 mM, KH2PO4 0.3 mM, NaCl 138 mM, NaHCO3 4 mM, Na2HPO4 0.3 mM, d-glucose 5.6 mM, with additional 20 mM HEPES and 13 mM CaCl2, pH 7.4), with 2.5 mM probenecid was added and the plate was incubated at 37° C. for 1 h. Compounds and other reagents were dissolved in the assay buffer. Using a FlexStationIII (Molecular Devices Corp.), the [Ca^2+]i fluorescence increases after robotic injections of compounds or other reagents were monitored every 1.52 s interval with excitation wavelength at 485 nm and with emission wavelength at 525 nm. The [Ca^2+]i fluorescence was measured up to 90 s after agonist injection.
A CHO-K1 cell line, expressing a MOR and Gα15 (GenScript), was used to set up a sensitive high-throughput screen (HTS) system. In a FLIPR® calcium assay using CHO-K1/MOR/Gα15 cells, activation of MOR elicits an intracellular calcium release leading to an increase in the relative fluorescence units (FRU). […] The HTS was performed in the absence or presence of an opioid antagonist, naloxone (25 nM), to identify antagonist to agonist allosteric modifiers (AAM).
A CHO-K1 cell line, expressing a MOR and Gα15 (GenScript), was used to set up a sensitive assay system for detecting μ-opioid receptor activation. […] The assay was performed in the presence of an opioid antagonist, i.e., naloxone (25 nM), naltrexone (20 nM), samidorphan (10 nM), naloxonazine dihydrochloride (20 nM), β-funaltrexamine hydrochloride (20 nM), cyprodime hydrochloride (500 nM), or nalmefene (20 nM), in combination with compound 58, an antagonist to agonist allosteric modifier (AAM), to identify activation of the μ-opioid receptor.

Chain of mu-opioid receptor (MOR) (P35372 whole entry): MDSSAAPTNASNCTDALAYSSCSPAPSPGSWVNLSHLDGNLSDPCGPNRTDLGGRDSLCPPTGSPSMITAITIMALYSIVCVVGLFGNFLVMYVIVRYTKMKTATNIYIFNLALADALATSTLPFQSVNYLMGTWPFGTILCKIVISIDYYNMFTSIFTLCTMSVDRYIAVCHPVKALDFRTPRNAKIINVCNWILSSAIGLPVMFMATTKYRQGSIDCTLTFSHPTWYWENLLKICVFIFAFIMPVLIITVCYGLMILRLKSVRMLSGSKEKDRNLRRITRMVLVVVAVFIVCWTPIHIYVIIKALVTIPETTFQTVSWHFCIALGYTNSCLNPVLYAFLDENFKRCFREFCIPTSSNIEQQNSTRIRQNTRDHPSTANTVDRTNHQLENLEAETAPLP

Row | SMILES | AUC | pEC50 (EC50, CHO-K1/MOR/Gα15 cells) | FLIPR Ca^2+ AUC | pEC50 (read-out: FLIPR Ca^2+ EC50)
1 | CCCCS(=O)(=O)NC(=O)c1ccc(N2C(=O)CSC2c2ccc(F)cc2)c(C)c1 (stereo not shown) [Example 163] | more than 5000 | > 5.00 | 11389 | 5.92
2 | Cc1cc(C(=O)NS(=O)(=O)C(C)C)ccc1N1C(=O)CSC1c1ccc(F)cc1 (stereo not shown) [Example 165] | more than 5000 | – | 11927 | 4.65
3 | Cc1cc(C(=O)NS(=O)(=O)CC(C)C)ccc1N1C(=O)CSC1c1ccc(F)cc1 (stereo not shown) [Example 167] | more than 5000 | > 5.00 | 9905 | 5.47
4 | Cc1cc(C(=O)NS(=O)(=O)C2CC2)ccc1N1C(=O)CSC1c1ccc(F)cc1 (stereo not shown) [Example 169] | more than 5000 | > 5.00 | 13189 | 5.52
5 | Cc1cc(C(=O)NS(=O)(=O)C2CCCCC2)ccc1N1C(=O)CSC1c1ccc(F)cc1 (stereo not shown) [Example 171] | more than 5000 | > 5.00 | 10272 | 5.43
6 | Cc1cc(C(=O)NS(N)(=O)=O)ccc1N1C(=O)CSC1c1ccc(F)cc1 (stereo not shown) [Example 173] | – | – | 14841 | 5.28
7 | Cc1cc(C(=O)NS(=O)(=O)N(C)C)ccc1N1C(=O)CSC1c1ccc(F)cc1 (stereo not shown) [Example 174] | – | – | 12074 | 5.42
8 | Cc1cc(C(=O)NS(=O)(=O)C(F)(F)F)ccc1N1C(=O)CSC1c1ccc(F)cc1 (stereo not shown) [Example 175] | – | – | 13866 | 5.80
9 | Cc1cc(C(=O)NS(=O)(=O)Cc2ccccc2)ccc1N1C(=O)CSC1c1ccc(F)cc1 (stereo not shown) [Example 176] | – | – | 10601 | 5.70
10 | Cc1cc(C(=O)NS(=O)(=O)Cc2cccc(F)c2)ccc1N1C(=O)CSC1c1ccc(F)cc1 (stereo not shown) [Example 177] | – | – | 16276 | 5.66
11 | Cc1cc(C)cc(CS(=O)(=O)NC(=O)c2ccc(N3C(=O)CSC3c3ccc(F)cc3)c(C)c2)c1 (stereo not shown) [Example 179] | more than 5000 | > 5.00 | 14442 | 5.96
12 | Cc1cc(C(=O)NS(=O)(=O)c2ccccc2)ccc1N1C(=O)CSC1c1ccc(F)cc1 (stereo not shown) [Example 183] | more than 5000 | > 5.00 | 12230 | 5.72
13 | Cc1ccc(S(=O)(=O)NC(=O)c2ccc(N3C(=O)CSC3c3ccc(F)cc3)c(C)c2)cc1 (stereo not shown) [Example 185] | – | – | 18048 | 6.22
14 | CCc1ccc(S(=O)(=O)NC(=O)c2ccc(N3C(=O)CSC3c3ccc(F)cc3)c(C)c2)cc1 (stereo not shown) [Example 186] | – | – | 18048 | 6.22
15 | Cc1cc(C(=O)NS(=O)(=O)c2ccc(C#N)cc2)ccc1N1C(=O)CSC1c1ccc(F)cc1 (stereo not shown) [Example 187] | – | – | 12927 | 5.48
16 | COc1ccc(S(=O)(=O)NC(=O)c2ccc(N3C(=O)CSC3c3ccc(F)cc3)c(C)c2)cc1 (stereo not shown) [Example 188] | – | – | 21983 | 6.15
17 | Cc1cc(C(=O)NS(=O)(=O)c2ccc(OC(F)(F)F)cc2)ccc1N1C(=O)CSC1c1ccc(F)cc1 (stereo not shown) [Example 189] | – | – | 9544 | 5.96
18 | CCOC(=O)c1ccc(S(=O)(=O)NC(=O)c2ccc(N3C(=O)CSC3c3ccc(F)cc3)c(C)c2)cc1 (stereo not shown) [Example 190] | – | – | 16512 | 5.62
19 | Cc1cc(C)c(S(=O)(=O)NC(=O)c2ccc(N3C(=O)CSC3c3ccc(F)cc3)c(C)c2)c(C)c1 (stereo not shown) [Example 192] | more than 5000 | > 5.00 | 11866 | 5.85
20 | Cc1cc(C(=O)NS(=O)(=O)c2cccc(F)c2)ccc1N1C(=O)CSC1c1ccc(F)cc1 (stereo not shown) [Example 194] | more than 5000 | > 5.00 | 19019 | 6.70

Row | SMILES | AUC | pEC50 (EC50, CHO-K1/MOR/Gα15 cells) | FLIPR Ca^2+ AUC | pEC50 (read-out: FLIPR Ca^2+ EC50)
21 | Cc1cc(C(=O)NS(=O)(=O)c2ccc(F)cc2)ccc1N1C(=O)CSC1c1ccc(F)cc1 (stereo not shown) [Example 196] | more than 5000 | > 5.00 | 15620 | 5.96
22 | Cc1cc(C(=O)NS(=O)(=O)c2ccc(Cl)cc2)ccc1N1C(=O)CSC1c1ccc(F)cc1 (stereo not shown) [Example 198] | more than 5000 | > 5.00 | 13313 | 6.30
23 | Cc1cc(C(=O)NS(=O)(=O)c2ccc(Br)cc2)ccc1N1C(=O)CSC1c1ccc(F)cc1 (stereo not shown) [Example 200] | more than 5000 | > 5.00 | 12340 | 6.70
24 | CC(=O)Nc1ccc(S(=O)(=O)NC(=O)c2ccc(N3C(=O)CSC3c3ccc(F)cc3)c(C)c2)cc1 (stereo not shown) [Example 202] | more than 5000 | > 5.00 | 17087 | 6.22
25 | Cc1cc(C(=O)NS(=O)(=O)c2ccc(F)cc2F)ccc1N1C(=O)CSC1c1ccc(F)cc1 (stereo not shown) [Example 206] | – | > 5.00 | – | –
26 | Cc1cc(S(=O)(=O)NC(=O)c2ccc(N3C(=O)CSC3c3ccc(F)cc3)c(C)c2)c(C)cc1Cl (stereo not shown) [Example 208] | – | > 5.00 | – | –
27 | Cc1cc(C(=O)NS(=O)(=O)c2cccc3c(N(C)C)cccc23)ccc1N1C(=O)CSC1c1ccc(F)cc1 (stereo not shown) [Example 210] | more than 5000 | > 5.00 | 9425 | 6.15
28 | Cc1cc(C(=O)NS(=O)(=O)c2cccnc2)ccc1N1C(=O)CSC1c1ccc(F)cc1 (stereo not shown) [Example 211] | more than 5000 | > 5.00 | 8779 | 6.52
29 | Cc1cc(C(=O)NS(=O)(=O)c2c(C)noc2C)ccc1N1C(=O)CSC1c1ccc(F)cc1 (stereo not shown) [Example 213] | more than 5000 | > 5.00 | 9005 | 6.05
30 | CCONC(=O)c1ccc(N2C(=O)CSC2c2ccc(F)cc2)c(C)c1 (stereo not shown) [Example 215] | – | – | 10945 | 5.39
31 | Cc1cc(C(=O)NOCc2ccccc2)ccc1N1C(=O)CSC1c1ccc(F)cc1 (stereo not shown) [Example 217] | – | – | 9543 | 5.39
32 | Cc1cc(C(=O)NO)ccc1N1C(=O)CSC1c1ccc(F)cc1 (stereo not shown) [Example 219] | – | – | 14222 | 5.19
33 | Cc1cc(C(=O)NN)ccc1N1C(=O)CSC1c1ccc(F)cc1 (stereo not shown) [Example 220] | – | – | 13871 | 5.31
34 | Cc1cc(-c2nnn[nH]2)ccc1N1C(=O)CSC1c1ccc(F)cc1 (stereo not shown) [Example 221] | – | – | 8284 | 6.70
35 | Cc1cc(-c2ccco2)ccc1N1C(=O)CSC1c1ccc(F)cc1 (stereo not shown) [Example 224] | more than 5000 | – | 7384 | 4.93
36 | Cc1nnc(-c2ccc(N3C(=O)CSC3c3ccc(F)cc3)c(C)c2)o1 (stereo not shown) [Example 227] | – | – | 15410 | 5.26
37 | Cc1cc(-c2nnc(C(F)(F)F)o2)ccc1N1C(=O)CSC1c1ccc(F)cc1 (stereo not shown) [Example 228] | – | – | 7035 | 5.07
38 | CCCOC(=O)c1ccc(N2C(=O)CSC2c2ccc(F)cc2)c(C)c1 (stereo not shown) [Example 229] | – | – | 13237 | 5.01
39 | Cc1cc(C(=O)OC(C)C)ccc1N1C(=O)CSC1c1ccc(F)cc1 (stereo not shown) [Example 231] | – | > 5.00 | – | –
40 | CCCCOC(=O)c1ccc(N2C(=O)CSC2c2ccc(F)cc2)c(C)c1 (stereo not shown) [Example 234] | – | – | 10062 | 5.05
